Results taken from patent US10716787B2, “Combinations” (ASTEX THERAPEUTICS LTD, priority 2014, dated 2020).

Key:
NCI-H1581 cells = experiment: Incucyte proliferation (confluence over time), prolonged treatment of NCI-H1581 cells; format: cell-based; conditions: 1 microM each agent
Experimental: (§1) Therefore, NCI-H1581 cells were plated onto 10 cm Collagen I coated plates and placed in an incubator at 37° C., 5% CO2. […] In the case of the parental cells with or without DMSO control, when the cells reached the confluence close to 100% they were trypsinized and re-plated back on the plate. […] After about 3 weeks from the initial treatment, cells were taken out of the plate by trypsinization and passaged on new plate for further expanding. […] (test 1)
The proliferation of the cells was followed using the Incucyt machine, measuring the confluence of the cells over time.

[1] = tested on: Parental, unsorted H1581 cells; experiment: Incucyte live cell imaging proliferation, parental unsorted H1581 cells; format: cell-based; set-up: dose or concentration left out as unconfirmed; conditions: four days
Experimental: Inhibition of growth of H1581^MET(+) cells by combination of FGFR and MET inhibitors. Parental, unsorted H1581 cells, and sorted H1581^Met(+) cells, subpopulation of H1581 cells that have high Met expression, were plated at 75000 cells per well in 24 well plate. […] Images were acquired every two hours. Proliferation of cells was presented as the mean of percentage of confluence±SD (n=2).

[2] = tested on: resistant NCI-H1581 xenografts; experiment: In vivo study, resistant NCI-H1581 xenografts; set-up: species or system Athymic nude mice; conditions: compound A 25 mg/kg p.o. QD for 37 d
Experimental: Athymic nude mice were inoculated with resistant NCI-H1581 cells (10e^6 cells/200 μl with matrigel, ratio 1:1, into the inguinal region of the mice).
All mice (84) were put into groups (4) and treated from the day of the cell injection.
The mice were treated orally (po), normal volume (250 μl/25 g) once daily and this for 37 days (QD×37). Measurement of the tumor volume was done at day 0, 5, 12, 15, 20, 23, 27, 30, 33, 37.
At day 37 all animals were sacrificed.

Met oncogene = experiment: Microarray gene expression profiling of resistant versus parental NCI-H1581 cells; format: cell-based; conditions: 1 microM, 1 day, 1 week and 2 weeks
Experimental: as §1

[3] = tested on: most sensitive cancer cell lines; experiment: Alamar blue cell based proliferation assay, most sensitive cancer cell lines
Experimental: (§2) Cells were seeded in 180 μl of medium at optimized cell densities in black 96 well plates with clear flat bottom. The outer wells were filled with 180 μl of medium. Cells were incubated for 24 hours at 37° C. and 5% CO2.
(§3) Next day compound dilutions were prepared in a 96 well plate with round bottom (Corning #3365). A 50× dilution of the compound was prepared in medium, 4 μl of compound stock in 196 μl of medium in a 96 well plate (Corning #3585).
(§4) Compound/medium plates were placed on a shaker for 10 minutes and then 20 μl of compound in medium was added to the cells (10× dilution). Cells were incubated at 37° C. and 5% CO2 for 4 days until alamarBlue® readout.
(§5) After 4 days of incubation with compound: Add 40 μl of alamarBlue® ready to use mix to each well. Incubate plates at 37° C. and 5% CO2. Measure plates after 4 or 6 hours of incubation (depends on cell line). Shake plates and measure RFU at ex.: 544 nm and em.: 590 nm
(§6) The alamarBlue® Assay incorporates a fluorometric/colorimetric growth indicator based on detection of metabolic activity. Specifically, the system incorporates an oxidation-reduction (REDOX) indicator that both fluoresces and changes color in response to chemical reduction of growth medium resulting from cell growth.

Met protein = experiment: Western blotting of Met phosphorylation in resistant NCI-H1581 cells; format: cell-based; conditions: 300 nM, 30 minutes
Experimental: FIG. 1: Western blotting of protein lysates derived from parental and resistant NCI-H1581 cells treated without (−) or with (+) Met inhibitor, 300 nM compound C, for 30 minutes.
(§7) Therefore the parental and resistant cells were profiled on phosphoRTK (receptor tyrosine kinase) arrays, and also for Met total protein expression and phosphorylation. The sensitivity of the cells to selected Met inhibitors (compound C and D) in the Alamar blue proliferation assay was also tested. […] Parental NCI-H1581 cells had very low detectable levels of Met protein, and no signal for Met protein phosphorylation (see FIG. 1).

[4] = tested on: resistant NCI-H1581 cells; experiment: Alamar blue proliferation assay, resistant NCI-H1581 cells; format: cell-based; conditions: for IC50: Resistant cells, 4 days incubation, repeated experiments
Experimental: The insensitive cells were isolated and profiled with the aim to determine the active signaling pathways that act as drivers for their survival and/or proliferation. Therefore, NCI-H1581 cells were plated onto 10 cm Collagen I coated plates and placed in an incubator at 37° C., 5% CO2. […] In the case of the parental cells with or without DMSO control, when the cells reached the confluence close to 100% they were trypsinized and re-plated back on the plate. In the compound treated plates outgrowth of resistant clones were observed. After about 3 weeks from the initial treatment, cells were taken out of the plate by trypsinization and passaged on new plate for further expanding. […] (test 1)
as §7, §2, §3, §4, §5, §6

parental NCI-H1581 cells = experiment: Alamar blue proliferation assay, parental NCI-H1581 cells; format: cell-based; conditions: for IC50: 4 days incubation
Experimental: as §1
Therefore the parental and resistant cells were profiled on phosphoRTK (receptor tyrosine kinase) arrays, and also for Met total protein expression and phosphorylation. The sensitivity of the cells to selected Met inhibitors (compound C and D) in the Alamar blue proliferation assay was also tested.
as §2, §3, §4, §5, §6

[5] = Homo sapiens, NCI-H1581, 96 h, Parental cells

Structure (SMILES) | IC50 ([4]; Homo sapiens, NCI-H1581, 96 h) | IC50 [4] | proliferation of the resistant NCI-H1581 cells (in words) [4] | proliferation of the parental NCI-H1581 cells (in words) (parental NCI-H1581 cells) | IC50 (parental NCI-H1581 cells; [5]) | also measured
COc1cc(OC)cc(N(CCNC(C)C)c2ccc3ncc(-c4cnn(C)c4)nc3c2)c1 [compound A, N-(3,5-dimethoxyphenyl)-N′-(1-methylethyl)-N-[3-(1-methyl-1H-pyrazol-4-yl)quinoxalin-6-yl]ethane-1,2-diamine] | – | – | – | – | – | emergence of resistance (outgrowth of insensitive cells) (NCI-H1581 cells; continuous treatment): after about three weeks emerging outgrowth of compound insensitive cells was observed; cell growth (confluence) [1]: equally inhibited; tumor growth [2]: did not have effect on tumor growth
COc1cc(OC)c(F)c(N(Cc2ncc[nH]2)c2ccc3ncc(-c4cnn(C)c4)nc3n2)c1 [compound B, N-(2-fluoro-3,5-dimethoxyphenyl)-N-(1H-imidazol-2-ylmethyl)-3-(1-methyl-1H-pyrazol-4-yl)pyrido[2,3-b]pyrazin-6-amine] | – | – | – | – | – | Met oncogene expression (microarray) (Met oncogene): upregulated in a time dependent manner; IC50 [3]: < 0.01 µM
Cn1cc(-c2ccc3nnc(C(F)(F)c4ccc5ncccc5c4)n3n2)cn1 [compound C, 6-{Difluoro[6-(1-methyl-1H-pyrazol-4-yl)[1,2,4]triazolo[4,3-b]pyridazin-3-yl]methyl}quinoline] | – | – | strongly inhibited | but not of the parental NCI-H1581 cells | > 30 µM | Met phosphorylation (Met protein): down regulated significantly

Continued, in another order:

IC50 ([4]; Homo sapiens, NCI-H1581, 96 h) | IC50 [4] | Structure (SMILES) | proliferation of the resistant NCI-H1581 cells (in words) [4] | proliferation of the parental NCI-H1581 cells (in words) (parental NCI-H1581 cells) | IC50 (parental NCI-H1581 cells; [5]) | also measured
0.341 µM | 0.444 µM | FC(F)(c1ccc2ncccc2c1)c1nnc2ccc(-c3ccncc3)nn12 [compound D, 6-[Difluoro(6-pyridin-4-yl[1,2,4]triazolo[4,3-b]pyridazin-3-yl)methyl]quinoline] | strongly inhibited | but not of the parental NCI-H1581 cells | > 10 µM | proliferation (confluence of the cells over time) (NCI-H1581 cells): did not impact the proliferation; IC50 (parental NCI-H1581 cells; Homo sapiens, NCI-H1581, 96 h, Parental cells + DMSO): > 30 µM
0.198 µM | 0.165 µM | C[C@@H](Oc1cc(-c2cnn(C3CCNCC3)c2)cnc1N)c1c(Cl)ccc(F)c1Cl [crizotinib, reference compound] | – | – | 6.91 µM | IC50 (parental NCI-H1581 cells; Parental cells): 4.95 µM
